The target of one experiment is T1, human ASCT2 (Homo sapiens, UniProt Q15758).
T1 construct: expressed in transfected cells; host or cells: HEK (human embryonic kidney) cells
T1 sequence (Q15758 1-541): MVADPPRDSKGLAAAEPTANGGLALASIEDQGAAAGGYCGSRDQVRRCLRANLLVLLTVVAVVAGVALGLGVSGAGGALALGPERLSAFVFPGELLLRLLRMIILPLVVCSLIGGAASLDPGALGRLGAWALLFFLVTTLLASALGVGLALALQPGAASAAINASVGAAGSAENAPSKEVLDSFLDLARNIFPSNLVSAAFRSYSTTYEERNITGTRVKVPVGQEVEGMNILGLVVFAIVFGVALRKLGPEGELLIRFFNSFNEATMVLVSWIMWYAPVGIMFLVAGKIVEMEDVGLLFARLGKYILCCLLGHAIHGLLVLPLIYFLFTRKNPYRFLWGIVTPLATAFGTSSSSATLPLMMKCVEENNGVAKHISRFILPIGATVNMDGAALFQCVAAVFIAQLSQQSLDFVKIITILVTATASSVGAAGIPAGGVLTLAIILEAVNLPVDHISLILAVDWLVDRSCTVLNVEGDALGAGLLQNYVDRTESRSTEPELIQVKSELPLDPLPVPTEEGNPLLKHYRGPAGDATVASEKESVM
Put plainly: transport into HEK cells expressing ASCT2. The class given is cell-based. Here is the method: Cell-based assays: the transport of [^3H]L- or D-serine was measured in primary cultures of rat hippocampal astrocytes or in human embryonic kidney (HEK) cells expressing ASCT transporter sub-types. For the astrocyte assays, cells were plated on either 24- or 96-well plates at a density of 50,000 cells per well. For the HEK assays, cells were plated on coated 96-well plates at a density of 80,000 cells/well. Assays were conducted in duplicate at room temperature in assay buffer consisting of: NaCl: 150 mM, KCl: 2 mM; MgCl2: 1 mM; CaCl2: 1 mM; HEPES: Tris buffer: 10 mM, pH7.4. To assess the sodium-dependence of transport, NaCl was replaced in the assay buffer by equimolar choline chloride. Following aspiration of growth medium and 2 washes with assay buffer, cells were incubated with [^3H]L- or D-serine at a final concentration of 1 μM for 5 min (astrocytes) or 1 min (HEK cells), after which the incubation medium was aspirated and the cells washed twice with ice-cold assay buffer. Cells containing radiolabel were solubilized in 100 μl of 1% Triton-X100 and an aliquot counted in a beta counter. IC50 values were determined over a range of at least 6 concentrations and derived from curve-fitting algorithms available in GraphPad Prism 4.

Experiment [1] relates to long-term potentiation (LTP) in the primary visual cortex. Put plainly: long term potentiation in primary visual cortex slices. Details: species or system rat. How it is done: Long Term Potentiation (LTP) in primary visual cortex has been used as a cellular model for visual cortex plasticity and has functional consequences on visual evoked responses. NMDA receptors play a critical role in visual cortex LTP induction.
Following decapitation of the rat, the brain was rapidly removed and immersed in ice-cold artificial cerebrospinal fluid (ACSF) containing 124 mM NaCl, 3 mM KCl, 1.25 mM KH2PO4, 3.4 mM CaCl2, 2.5 mM MgSO4, 26 mM NaHCO3, and 10 mM D-glucose. A block of visual cortex was created by removing the frontal ⅔ portion of the brain and the cerebellum. Coronal visual cortex slices of 375 μm were prepared from adult Sprague Dawley (SD) rats using a vibratome (VT 1000 S; Leica). The slices were maintained in an interface recording chamber perfused with preheated ACSF. Slices were continuously perfused with this solution at a rate of 1.00-1.50 ml/min while the surface of the slices was exposed to warm, humidified 95% O2/5% CO2 and maintained at 31±1° C. Visual cortex slices were allowed to recover for 1 hr before recording began. […] This was repeated 2 additional times with a 1 minute intertrain interval, and the level of LTP was recorded for at least 30 min. Changes in amplitude of the synaptic response were used to measure the extent of LTP because it was determined to be the more consistent parameter than the slope of the response. […]

The test system of experiment [2] is NMDA receptor-mediated excitatory postsynaptic currents (EPSCNMDA). The experiment can be described thus: electrophysiological recording of NMDA receptor-mediated EPSCs in rat hippocampal slices. How it is done: […] thick hippocampal slices were prepared from […] rats using Leica VT1000S-microtome. Slices were perfused with ACSF containing: 121 mM NaCl, 2.5 mM KCl, 2.0 mM Mg2SO4, 2.0 CaCl2, 1 mM NaH2PO4, 26.2 NaHCO3, and 11 mM glucose, which was equilibrated with 5% CO2/95% O2. Experiments were performed in a recording chamber on the stage of an Olympus BX-61wi microscope with infrared DIC optics for visualizing whole-cell patch-clamp recordings. EPSPs were recorded from CA1 pyramidal neurons by stimulating the Schaffer collateral-commissural pathway using a bipolar tungsten electrode. The recording pipettes were filled with regular ICM containing: 120 mM Cs-gluconate, 5 mM NaCl, 10 mM KCl, 0.1 mM CaCl2, 1 mM EGTA, 2 mM MgCl2, 10 mM HEPES, 2 mM Na-ATP, 2 mM Na2-phosphocreatine, and 0.25 mM Na-GTP, pH 7.3 (290 mOsm).
To measure NMDA-mediated EPSCs, extracellular Mg2SO4 was lowered to 0.2 mM and 2 μM NBQX and 100 μM picrotoxin were added in the ACSF. 1 μM 7-CKY (7-chlorokynurenic acid) was added to improve the sensitivity of […] to D-serine.

In experiment [3] the test system is amphetamine-induced hyperlocomotion in mice. Put plainly: amphetamine induced hyperactivity. The class given is in vivo. Conditions: systemic administration, amphetamine 2 mg/kg s.c. Here is the method: C57B/6 male mice (n=5-10/group) were placed in an open field apparatus and their activity was measured for 30 minutes. At 30 minutes, they received a vehicle injection or injection of test compound followed by an injection of amphetamine (2 mg/kg, s.c.) at minute 45. Their activity levels were subsequently measured for another 1 hour post-injection. Total activity for each 5 minute bin (21 total bins) was added to establish the activity curve over the 105 minute testing.

`N[C@H](CO)C(=O)O` [D-serine]: the “inhibition of [3H]L-serine transport in ASCT2-expressing HEK cells” value on human ASCT2 is “completely inhibited”.

Take `N[C@H](C(=O)O)c1ccc(O)cc1` [L-4-hydroxyphenylglycine]: the “effect on LTP with D-AAO in the perfusion medium” value in experiment [1] (0.2 unit/ml DAAO) is “completely prevented”. Besides, in experiment [1] (rat visual cortex slice), the “effect on LTP evoked by theta burst stimulation in visual cortex slice” value is recorded as “enhanced LTP in a concentration-dependent manner”. Besides, in experiment [2] (1000 μM, in presence of 1 μM 7-CKY, representative experiment), the “percentage increase in the amplitude of EPSCNMDA” value was found to be 22%. Moreover, in experiment [2] (1000 μM, representative experiment), the “duration of potentiation of EPSCNMDA” value is “lasted for one hour and then returned to baseline in control buffer”. Further, the “effect on NMDA receptor mediated EPSCs in CA1 region of the hippocampus” value in experiment [2] (rat hippocampal slice) was “potentiated NMDA receptor mediated excitatory post-synaptic currents”. The “effect on amphetamine-induced hyperactivity/hyperlocomotion” value in experiment [3] is “reduced amphetamine-induced hyperactivity in a dose-dependent manner”.
